{"source": "paper PMC12833730", "about": "“Discovery of a First‐in‐Class Covalent Allosteric SHP1 Inhibitor with Immunotherapeutic Activity” (Angewandte Chemie (International Ed. in English), 2025)", "key": {"SHP1 [1]": {"biological_target": "T1, SHP1 (Homo sapiens, UniProt P29350)", "T1 construct": "SHP1, residues 245-543; made in house; host or cells: E. coli BL21(DE3)", "T1 sequence (P29350 245-543)": "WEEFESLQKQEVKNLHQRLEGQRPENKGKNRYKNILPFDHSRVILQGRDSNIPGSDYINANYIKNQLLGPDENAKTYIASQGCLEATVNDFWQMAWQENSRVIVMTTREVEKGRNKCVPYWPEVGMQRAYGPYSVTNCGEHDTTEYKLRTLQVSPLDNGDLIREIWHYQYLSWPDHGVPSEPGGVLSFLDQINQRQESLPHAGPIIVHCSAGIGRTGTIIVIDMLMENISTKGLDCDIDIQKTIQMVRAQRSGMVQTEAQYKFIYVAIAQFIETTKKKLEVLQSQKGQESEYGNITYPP", "experiment": "Vanadate protection jump-dilution experiment", "format": "biochemical", "experimental": "To further understand the mode of M029 action and ascertain whether M029 binds the SHP1 active site or a yet undefined novel site in SHP1, we performed a vanadate (VO4 ^3−) protection experiment. Vanadate is a reversible and competitive PTP inhibitor,^[ [76], [77] ^] and thus excessive vanadate would be expected to fully occupy the PTP active site and prevent covalent modifications of residues within the active site pocket. In this assay, SHP1 was co‐incubated with 30 µM M029 and 500 µM sodium orthovanadate or vehicle control for 30 min. The SHP1‐inhibitor complex was then rapidly diluted 100‐fold into a buffered solution containing 10 mM pNPP, and immediately, the absorbance at 405 nm was monitored over time to determine the remaining phosphatase activity."}, "[2]": {"tested_on": "LCK, PLCγ and ERK1/2 phosphorylation in Jurkat T cells", "experiment": "TCR-LCK signaling immunoblot", "format": "cell-based", "settings": "dose response", "experimental": "(§1) Supernatants from lysed cells were reduced, treated with iodoacetamide to cap thiol residues, and digested by trypsin for bottom‐up proteomics analysis. […] LCK is the direct substrate of SHP1 and ERK1/2, and PLCγ is the downstream effector protein of LCK‐mediated TCR signaling. […] Statistical analyses were performed with Graphpad Prism software 10.4.2 through the one‐way ANOVA test using Turkey post‐hoc comparison. ****p < 0.0001 was considered significant.\n(§2) To further confirm M029 cellular target engagement, we investigated the effect of M029 on T cell function. SHP1 plays a negative role in T cells, and deletion of SHP1 in T cells lowers the activation threshold and enhances antitumor immunity.^[ [30], [31], [32], [33] ^] Mechanistically, SHP1 attenuates T cell receptor (TCR) signaling via dephosphorylation of the lymphocyte‐specific protein tyrosine kinase LCK.^[ [31], [84], [85], [86] ^] T cell activation leads to increased expression and secretion of interleukin 2 (IL‐2)^[ [87] ^] while the removal of SHP1 in T cells enhances IL‐2 production, cell proliferation, and cytolysis capacity.^[ [30], [32] ^] Accordingly, we sought to assess the impact of targeting SHP1 with M029 on TCR‐LCK signaling and T cell activation. […] M029 also dose‐dependently promoted IL‐2 production (Figure 4c). […] These findings corroborate that the observed increase in LCK phosphorylation and its downstream signaling indeed resulted from SHP1 inhibition by M029.\nImmunoblotting: Cultured cells were lysed with ice-cold lysis buffer (50 mM Tris, pH 8.0, 150 mM NaCl, 10% Glycerol, 1% Triton-X-100) supplied with phosphatase inhibitor (Bimake) and protease inhibitor mixture (Roche Applied Science). Equal amounts of protein were resolved by SDS-PAGE, transferred to a nitrocellulose membrane, and subjected to immunoblotting. […]"}, "SHP1 KO Jurkat T cells": {"tested_on": "SHP1 KO Jurkat T cells", "experiment": "TCR-LCK signaling in SHP1 KO cells", "format": "cell-based", "experimental": "as §1\nTo further confirm M029 cellular target engagement, we investigated the effect of M029 on T cell function. SHP1 plays a negative role in T cells, and deletion of SHP1 in T cells lowers the activation threshold and enhances antitumor immunity.^[ [30], [31], [32], [33] ^] Mechanistically, SHP1 attenuates T cell receptor (TCR) signaling via dephosphorylation of the lymphocyte‐specific protein tyrosine kinase LCK.^[ [31], [84], [85], [86] ^] T cell activation leads to increased expression and secretion of interleukin 2 (IL‐2)^[ [87] ^] while the removal of SHP1 in T cells enhances IL‐2 production, cell proliferation, and cytolysis capacity.^[ [30], [32] ^] Accordingly, we sought to assess the impact of targeting SHP1 with M029 on TCR‐LCK signaling and T cell activation. […] M029 also dose‐dependently promoted IL‐2 production (Figure 4c). […]"}, "SHP1 [3]": {"biological_target": "T1, SHP1", "experiment": "Thermal shift assay", "format": "binding", "settings": "vs DMSO control", "description": "Building on the results from the SAR “by‐catalog” study, the following medicinal chemistry effort was prioritized on a systematic survey of the central phenyl scaffold, the sulfonamide linker, and the distal aryl moiety with the goal of a multiparameter optimization of potency and selectivity for SHP1 inhibition as well as drug‐like properties such as aqueous solubility and cell permeability. Additionally, given the crucial requirement for targeted covalent inhibitors to maintain tempered reactivity that enables selective target engagement and reduces cross‐reactivity to by‐standing nucleophiles in the cellular milieu,^[ [74], [75] ^] the medicinal chemistry campaign also sought to lower SHP1 covalent inhibitor reactivity with GSH and cytotoxicity. Careful assessment and evaluation of the SAR and other desirable drug‐like attributes of all synthesized molecules led to the identification of M029 (Figure 2a and Figure S2D, manuscript in preparation). […] To determine the selectivity of M029 for SHP1, we measured the IC50 value for M029‐mediated inhibition of a number of PTPs after a 60‐min preincubation. […]\nThe mixtures were centrifuged to remove the unfolded SHP1 proteins, and the supernatants were spiked with a control protein CDC14A, followed by loading into SDS‐PAGE gels to quantify the relative SHP1 level."}, "IL-2 in Jurkat T cells": {"tested_on": "IL-2 in Jurkat T cells", "experiment": "IL-2 mRNA / production", "format": "cell-based", "settings": "dose response", "experimental": "as §1, §2"}}, "note": "Entries after “also recorded” stand apart in the source; their conditions may differ."}
{"smiles": "N#Cc1ccsc1NS(=O)(=O)c1ccc(NC(=O)CCl)cc1", "note": "[M029, 2-Chloro-N-(4-(N-(3-cyanothiophen-2-yl)sulfamoyl)phenyl)acetamide]", "values": [{"measurement": "SHP1 protection from inactivation by vanadate", "setting": "SHP1 [1]; 30 µM M029 + 500 µM sodium orthovanadate, 30 min, 100-fold dilution", "result": "did not show a significant difference; also recorded: not protected from M029 inactivation"}, {"measurement": "residual phosphatase activity after 100-fold jump dilution, compound alone", "setting": "SHP1 [1]; 30 µM M029, 30 min", "result": "Little residual phosphatase activity"}, {"measurement": "TCR-mediated phosphorylation of LCK, PLCγ and ERK1/2", "setting": "[2]", "result": "upregulation; also recorded: dose dependently increased"}, {"measurement": "LCK, PLCγ, and ERK1/2 phosphorylation in SHP1-deleted cells", "setting": "SHP1 KO Jurkat T cells", "result": "abolished; also recorded: unable to alter"}, {"measurement": "decrease in SHP1 protein melting temperature", "setting": "SHP1 [3]", "result": 1.8, "unit": "°C"}, {"measurement": "IL-2 production / relative IL-2 mRNA level", "setting": "IL-2 in Jurkat T cells", "result": "increased; also recorded: promoted"}]}
